This passage reports logD results from the SangsterLogP compilation.

The series in a line: method code SF-AS, from PMID: 2985094. The settings on record: pH 7.4.

`Cn1c(=O)[nH]c2ncn(CCc3ccc(Br)cc3)c2c1=N` displayed a logD of 1.25.

Regarding `Cn1c(N)c2c(ncn2Cc2ccccc2)nc1=O`, the pH-dependent lipophilicity (logD) is 0.07.

The molecule `COCn1cnc2[nH]c(=O)n(C)c(=N)c21` showed a logD of -2.41.

`COCn1cnc2nc(=O)n(C)c(N)c21` showed a log distribution coefficient (logD) of -2.41.

In turn, `C=COCCn1cnc2c(=N)n(C)c(=O)[nH]c21` had a logD of -0.24.

`CCSCCn1cnc2c(=N)n(C)c(=O)[nH]c21`: the log distribution coefficient (logD) is 0.

`Cn1c(=O)[nH]c2ncn(CCCC(=O)c3ccc(F)cc3)c2c1=N` had a logD of -1.04.

As for `CCSCCn1cnc2[nH]c(=O)n(C)c(=N)c21`, the log distribution coefficient (logD) is -0.13.

Take `Cn1c(=O)[nH]c2ncn(C)c2c1=N`: the pH-dependent lipophilicity (logD) was -2.27.

For `COCn1cnc2c(=N)n(C)c(=O)[nH]c21`, the log distribution coefficient (logD) is -1.22.

`C=COCCn1cnc2[nH]c(=O)n(C)c(=N)c21` gave a logD of -0.78.

On to `COCCn1cnc2nc(=O)n(C)c(N)c21`, for which the logD is -1.49.

For the molecule `C=CCn1cnc2c(=N)n(C)c(=O)[nH]c21`, the logD is -0.57.

`CC(=O)OCCn1cnc2[nH]c(=O)n(C)c(=N)c21` had a pH-dependent lipophilicity (logD) of -1.2.

`Cn1c(N)c2ncn(Cc3ccccc3)c2nc1=O`: the pH-dependent lipophilicity (logD) was found to be 0.65.

`Cn1c(=O)[nH]c2c(ncn2CCCC(=O)c2ccc(F)cc2)c1=N` came in with a logD of 0.44.

In turn, `COCCOCn1cnc2c(=N)n(C)c(=O)[nH]c21` gave a logD of -1.52.

Turning to `CCOCCn1cnc2c(N)n(C)c(=O)nc21`, the log distribution coefficient (logD) was -0.4.

As to `COCCn1cnc2c(N)n(C)c(=O)nc21`, the log distribution coefficient (logD) was -0.96.

As to `CCOC(=O)CCn1cnc2c(=N)n(C)c(=O)[nH]c21`, the pH-dependent lipophilicity (logD) is -0.45.

As for `CCOCCn1cnc2[nH]c(=O)n(C)c(=N)c21`, the logD was -1.1.
